# Data: article PMC8217813, “Bridging Computational Vaccinology and Vaccine Development Through Systematic Identification, Characterization, and Downselection of Conserved and Variable Circumsporozoite Protein CD4 T Cell Epitopes From Diverse Plasmodium falciparum Strains” (Frontiers in Immunology, 2021)
# System: CD4 T cells co-cultured with autologous DCs from PBMCs
# Type: cell-based, human
# Conditions: for Percentage of donors demonstrating IFN-γ responses, DR1 / Percentage of donors demonstrating IL-2 responses, DR1 / Percentage of donors demonstrating IL-4 responses, DR1 / Percentage of donors demonstrating IL-10 responses, DR1 / Percentage of donors demonstrating TNF-α responses, DR1: DR1 donors N=5; for Percentage of donors demonstrating IFN-γ responses, DR1 / Percentage of donors demonstrating IL-2 responses, DR1 / Percentage of donors demonstrating IL-4 responses, DR1 / Percentage of donors demonstrating IL-10 responses, DR1 / Percentage of donors demonstrating TNF-α responses, DR1 / Percentage of donors demonstrating IFN-γ responses, DR3 / Percentage of donors demonstrating IL-2 responses, DR3 / Percentage of donors demonstrating IL-4 responses, DR3 / Percentage of donors demonstrating IL-10 responses, DR3 / Percentage of donors demonstrating TNF-α responses, DR3 / Percentage of donors demonstrating IFN-γ responses, DR4 / Percentage of donors demonstrating IL-2 responses, DR4 / Percentage of donors demonstrating IL-4 responses, DR4 / Percentage of donors demonstrating IL-10 responses, DR4 / Percentage of donors demonstrating TNF-α responses, DR4 / Percentage of donors demonstrating IFN-γ responses, DR7 / Percentage of donors demonstrating IL-2 responses, DR7 / Percentage of donors demonstrating IL-4 responses, DR7 / Percentage of donors demonstrating IL-10 responses, DR7 / Percentage of donors demonstrating TNF-α responses, DR7 / Percentage of donors demonstrating IFN-γ responses, DR8 / Percentage of donors demonstrating IL-2 responses, DR8 / Percentage of donors demonstrating IL-4 responses, DR8 / Percentage of donors demonstrating IL-10 responses, DR8 / Percentage of donors demonstrating TNF-α responses, DR8 / Percentage of donors demonstrating IFN-γ responses, DR9 / Percentage of donors demonstrating IL-2 responses, DR9 / Percentage of donors demonstrating IL-4 responses, DR9 / Percentage of donors demonstrating IL-10 responses, DR9 / Percentage of donors demonstrating TNF-α responses, DR9 / Percentage of donors demonstrating IFN-γ responses, DR11 / Percentage of donors demonstrating IL-2 responses, DR11 / Percentage of donors demonstrating IL-4 responses, DR11 / Percentage of donors demonstrating IL-10 responses, DR11 / Percentage of donors demonstrating TNF-α responses, DR11 / Percentage of donors demonstrating IFN-γ responses, DR13 / Percentage of donors demonstrating IL-2 responses, DR13 / Percentage of donors demonstrating IL-4 responses, DR13 / Percentage of donors demonstrating IL-10 responses, DR13 / Percentage of donors demonstrating TNF-α responses, DR13 / Percentage of donors demonstrating IFN-γ responses, DR15 / Percentage of donors demonstrating IL-2 responses, DR15 / Percentage of donors demonstrating IL-4 responses, DR15 / Percentage of donors demonstrating IL-10 responses, DR15 / Percentage of donors demonstrating TNF-α responses, DR15: positive = Stimulation Index ≥1.5-fold above baseline, 5 µg/mL peptide; for Percentage of donors demonstrating IFN-γ responses, DR1 / Percentage of donors demonstrating IFN-γ responses, DR3 / Percentage of donors demonstrating IFN-γ responses, DR4 / Percentage of donors demonstrating IFN-γ responses, DR7 / Percentage of donors demonstrating IFN-γ responses, DR8 / Percentage of donors demonstrating IFN-γ responses, DR9 / Percentage of donors demonstrating IFN-γ responses, DR11 / Percentage of donors demonstrating IFN-γ responses, DR13 / Percentage of donors demonstrating IFN-γ responses, DR15: ICCS after 14-day co-culture; for Percentage of donors demonstrating IL-2 responses, DR1 / Percentage of donors demonstrating IL-4 responses, DR1 / Percentage of donors demonstrating IL-10 responses, DR1 / Percentage of donors demonstrating TNF-α responses, DR1 / Percentage of donors demonstrating IL-2 responses, DR3 / Percentage of donors demonstrating IL-4 responses, DR3 / Percentage of donors demonstrating IL-10 responses, DR3 / Percentage of donors demonstrating TNF-α responses, DR3 / Percentage of donors demonstrating IL-2 responses, DR4 / Percentage of donors demonstrating IL-4 responses, DR4 / Percentage of donors demonstrating IL-10 responses, DR4 / Percentage of donors demonstrating TNF-α responses, DR4 / Percentage of donors demonstrating IL-2 responses, DR7 / Percentage of donors demonstrating IL-4 responses, DR7 / Percentage of donors demonstrating IL-10 responses, DR7 / Percentage of donors demonstrating TNF-α responses, DR7 / Percentage of donors demonstrating IL-2 responses, DR8 / Percentage of donors demonstrating IL-4 responses, DR8 / Percentage of donors demonstrating IL-10 responses, DR8 / Percentage of donors demonstrating TNF-α responses, DR8 / Percentage of donors demonstrating IL-2 responses, DR9 / Percentage of donors demonstrating IL-4 responses, DR9 / Percentage of donors demonstrating IL-10 responses, DR9 / Percentage of donors demonstrating TNF-α responses, DR9 / Percentage of donors demonstrating IL-2 responses, DR11 / Percentage of donors demonstrating IL-4 responses, DR11 / Percentage of donors demonstrating IL-10 responses, DR11 / Percentage of donors demonstrating TNF-α responses, DR11 / Percentage of donors demonstrating IL-2 responses, DR13 / Percentage of donors demonstrating IL-4 responses, DR13 / Percentage of donors demonstrating IL-10 responses, DR13 / Percentage of donors demonstrating TNF-α responses, DR13 / Percentage of donors demonstrating IL-2 responses, DR15 / Percentage of donors demonstrating IL-4 responses, DR15 / Percentage of donors demonstrating IL-10 responses, DR15 / Percentage of donors demonstrating TNF-α responses, DR15: ICCS; for Percentage of donors demonstrating IFN-γ responses, DR3 / Percentage of donors demonstrating IL-2 responses, DR3 / Percentage of donors demonstrating IL-4 responses, DR3 / Percentage of donors demonstrating IL-10 responses, DR3 / Percentage of donors demonstrating TNF-α responses, DR3: DR3 donors N=6; for Percentage of donors demonstrating IFN-γ responses, DR4 / Percentage of donors demonstrating IL-2 responses, DR4 / Percentage of donors demonstrating IL-4 responses, DR4 / Percentage of donors demonstrating IL-10 responses, DR4 / Percentage of donors demonstrating TNF-α responses, DR4: DR4 donors N=10; for Percentage of donors demonstrating IFN-γ responses, DR7 / Percentage of donors demonstrating IL-2 responses, DR7 / Percentage of donors demonstrating IL-4 responses, DR7 / Percentage of donors demonstrating IL-10 responses, DR7 / Percentage of donors demonstrating TNF-α responses, DR7: DR7 donors N=4; for Percentage of donors demonstrating IFN-γ responses, DR8 / Percentage of donors demonstrating IL-2 responses, DR8 / Percentage of donors demonstrating IL-4 responses, DR8 / Percentage of donors demonstrating IL-10 responses, DR8 / Percentage of donors demonstrating TNF-α responses, DR8: DR8 donors N=4; for Percentage of donors demonstrating IFN-γ responses, DR9 / Percentage of donors demonstrating IL-2 responses, DR9 / Percentage of donors demonstrating IL-4 responses, DR9 / Percentage of donors demonstrating IL-10 responses, DR9 / Percentage of donors demonstrating TNF-α responses, DR9: DR9 donors N=4; for Percentage of donors demonstrating IFN-γ responses, DR11 / Percentage of donors demonstrating IL-2 responses, DR11 / Percentage of donors demonstrating IL-4 responses, DR11 / Percentage of donors demonstrating IL-10 responses, DR11 / Percentage of donors demonstrating TNF-α responses, DR11: DR11 donors N=4; for Percentage of donors demonstrating IFN-γ responses, DR13 / Percentage of donors demonstrating IL-2 responses, DR13 / Percentage of donors demonstrating IL-4 responses, DR13 / Percentage of donors demonstrating IL-10 responses, DR13 / Percentage of donors demonstrating TNF-α responses, DR13: DR13 donors N=7; for Percentage of donors demonstrating IFN-γ responses, DR15 / Percentage of donors demonstrating IL-2 responses, DR15 / Percentage of donors demonstrating IL-4 responses, DR15 / Percentage of donors demonstrating IL-10 responses, DR15 / Percentage of donors demonstrating TNF-α responses, DR15: DR15 donors N=7
sequence,measurement,setting,value
DQHIEQYLKTIQNSLSTEWS [ICS4],"Percentage of donors demonstrating IFN-γ responses, DR1",,0%
same,"Percentage of donors demonstrating IL-2 responses, DR1",,20%
same,"Percentage of donors demonstrating IL-4 responses, DR1",,0%
same,"Percentage of donors demonstrating IL-10 responses, DR1",,0%
same,"Percentage of donors demonstrating TNF-α responses, DR1",,0%
same,"Percentage of donors demonstrating IFN-γ responses, DR3",,0%
same,"Percentage of donors demonstrating IL-2 responses, DR3",,0%
same,"Percentage of donors demonstrating IL-4 responses, DR3",,17%
same,"Percentage of donors demonstrating IL-10 responses, DR3",,0%
same,"Percentage of donors demonstrating TNF-α responses, DR3",,0%
same,"Percentage of donors demonstrating IFN-γ responses, DR4",,30%
same,"Percentage of donors demonstrating IL-2 responses, DR4",,20%
same,"Percentage of donors demonstrating IL-4 responses, DR4",,0%
same,"Percentage of donors demonstrating IL-10 responses, DR4",,10%
same,"Percentage of donors demonstrating TNF-α responses, DR4",,30%
same,"Percentage of donors demonstrating IFN-γ responses, DR7",,0%
same,"Percentage of donors demonstrating IL-2 responses, DR7",,0%
same,"Percentage of donors demonstrating IL-4 responses, DR7",,0%
same,"Percentage of donors demonstrating IL-10 responses, DR7",,0%
same,"Percentage of donors demonstrating TNF-α responses, DR7",,0%
same,"Percentage of donors demonstrating IFN-γ responses, DR8",,0%
same,"Percentage of donors demonstrating IL-2 responses, DR8",,0%
same,"Percentage of donors demonstrating IL-4 responses, DR8",,0%
same,"Percentage of donors demonstrating IL-10 responses, DR8",,0%
same,"Percentage of donors demonstrating TNF-α responses, DR8",,0%
same,"Percentage of donors demonstrating IFN-γ responses, DR9",,0%
same,"Percentage of donors demonstrating IL-2 responses, DR9",,0%
same,"Percentage of donors demonstrating IL-4 responses, DR9",,0%
same,"Percentage of donors demonstrating IL-10 responses, DR9",,0%
same,"Percentage of donors demonstrating TNF-α responses, DR9",,0%
same,"Percentage of donors demonstrating IFN-γ responses, DR11",,0%
same,"Percentage of donors demonstrating IL-2 responses, DR11",,25%
same,"Percentage of donors demonstrating IL-4 responses, DR11",,0%
same,"Percentage of donors demonstrating IL-10 responses, DR11",,0%
same,"Percentage of donors demonstrating TNF-α responses, DR11",,0%
same,"Percentage of donors demonstrating IFN-γ responses, DR13",,0%
same,"Percentage of donors demonstrating IL-2 responses, DR13",,0%
same,"Percentage of donors demonstrating IL-4 responses, DR13",,14%
same,"Percentage of donors demonstrating IL-10 responses, DR13",,0%
same,"Percentage of donors demonstrating TNF-α responses, DR13",,0%
same,"Percentage of donors demonstrating IFN-γ responses, DR15",,29%
same,"Percentage of donors demonstrating IL-2 responses, DR15",,14%
same,"Percentage of donors demonstrating IL-4 responses, DR15",,0%
same,"Percentage of donors demonstrating IL-10 responses, DR15",,0%
same,"Percentage of donors demonstrating TNF-α responses, DR15",,29%
same,"median SI, IFN-γ recall responses","median stimulation index across donors, response with peptide divided by response with no peptide",0.74
DKHIEKYLKRIQNSLSTEWS [ICS9],"Percentage of donors demonstrating IFN-γ responses, DR1",,40%
same,"Percentage of donors demonstrating IL-2 responses, DR1",,20%
same,"Percentage of donors demonstrating IL-4 responses, DR1",,0%
same,"Percentage of donors demonstrating IL-10 responses, DR1",,0%
same,"Percentage of donors demonstrating TNF-α responses, DR1",,40%
same,"Percentage of donors demonstrating IFN-γ responses, DR3",,50%
same,"Percentage of donors demonstrating IL-2 responses, DR3",,33%
same,"Percentage of donors demonstrating IL-4 responses, DR3",,33%
same,"Percentage of donors demonstrating IL-10 responses, DR3",,17%
same,"Percentage of donors demonstrating TNF-α responses, DR3",,50%
same,"Percentage of donors demonstrating IFN-γ responses, DR4",,70%
same,"Percentage of donors demonstrating IL-2 responses, DR4",,50%
same,"Percentage of donors demonstrating IL-4 responses, DR4",,0%
same,"Percentage of donors demonstrating IL-10 responses, DR4",,10%
same,"Percentage of donors demonstrating TNF-α responses, DR4",,70%
same,"Percentage of donors demonstrating IFN-γ responses, DR7",,75%
same,"Percentage of donors demonstrating IL-2 responses, DR7",,50%
same,"Percentage of donors demonstrating IL-4 responses, DR7",,25%
same,"Percentage of donors demonstrating IL-10 responses, DR7",,0%
same,"Percentage of donors demonstrating TNF-α responses, DR7",,50%
same,"Percentage of donors demonstrating IFN-γ responses, DR8",,50%
same,"Percentage of donors demonstrating IL-2 responses, DR8",,75%
same,"Percentage of donors demonstrating IL-4 responses, DR8",,0%
same,"Percentage of donors demonstrating IL-10 responses, DR8",,0%
same,"Percentage of donors demonstrating TNF-α responses, DR8",,100%
same,"Percentage of donors demonstrating IFN-γ responses, DR9",,50%
same,"Percentage of donors demonstrating IL-2 responses, DR9",,50%
same,"Percentage of donors demonstrating IL-4 responses, DR9",,0%
same,"Percentage of donors demonstrating IL-10 responses, DR9",,0%
same,"Percentage of donors demonstrating TNF-α responses, DR9",,50%
same,"Percentage of donors demonstrating IFN-γ responses, DR11",,75%
same,"Percentage of donors demonstrating IL-2 responses, DR11",,50%
same,"Percentage of donors demonstrating IL-4 responses, DR11",,0%
same,"Percentage of donors demonstrating IL-10 responses, DR11",,0%
same,"Percentage of donors demonstrating TNF-α responses, DR11",,75%
same,"Percentage of donors demonstrating IFN-γ responses, DR13",,43%
same,"Percentage of donors demonstrating IL-2 responses, DR13",,43%
same,"Percentage of donors demonstrating IL-4 responses, DR13",,0%
same,"Percentage of donors demonstrating IL-10 responses, DR13",,14%
same,"Percentage of donors demonstrating TNF-α responses, DR13",,57%
same,"Percentage of donors demonstrating IFN-γ responses, DR15",,57%
same,"Percentage of donors demonstrating IL-2 responses, DR15",,43%
same,"Percentage of donors demonstrating IL-4 responses, DR15",,14%
same,"Percentage of donors demonstrating IL-10 responses, DR15",,43%
same,"Percentage of donors demonstrating TNF-α responses, DR15",,43%
